Experiments:
[1] = tested on: Adult L. serricata (blowflies); test: Test A: adult blowflies on blood agar containing test compound, number of dead flies scored; format: in vivo, Lucilia sericata; conditions: 4 flies in test; for Number dead flies at 2 hours: scored at 2 hours; for Number dead flies at 4 hours: scored at 4 hours; for Number dead flies at 24 hours: scored at 24 hours
Procedure: Adult L. serricata (blowflies): Adult flies are placed on beds of blood agar (in individual test wells; 4 flies per well) in which test compound (3-bromo-1-(3-chloro-2-pyridinyl)-N-[4-cyano-2-methyl-6-[(methylamino)carbonyl]phenyl]-1H-pyrazole-5-carboxamide) was dissolved/suspended prior to hardening of agar. Flies can take up test compound by both ingestion and contact. Assays are scored by number of dead flies at 2 hours, 4 hours, and 24 hours.

[2] = tested on: Newly emerged larvae of blowfly, Lucilica sericata; test: Blowfly larvae on filter paper discs with test compound mixed in dried blood bovine serum, mortality; format: in vivo; conditions: Lucilia sericata, assessed at 24 hours, four replicates per data point
Procedure: L. serricata (Insect; Blowfly) Larvae.
Test compound (3-bromo-1-(3-chloro-2-pyridinyl)-N-[4-cyano-2-methyl-6-[(methylamino)-carbonyl]phenyl]-1H-pyrazole-5-carboxamide) was mixed with dried blood bovine serum and placed on filter paper discs. Newly emerged larvae of blowfly, Lucilica sericata were added to the filter paper, which were ingested by larvae. Activity may occur through both feeding and contact. Four replicates were run per data point. Activity was assessed at 24 hours.

SMILES | Number dead flies at 2 hours ([1]; Rate 1 ppm in blood agar) | Number dead flies at 4 hours ([1]; Rate 1 ppm in blood agar) | Number dead flies at 24 hours ([1]; Rate 1 ppm in blood agar) | Number dead flies at 2 hours ([1]; Rate 10 ppm in blood agar) | Number dead flies at 4 hours ([1]; Rate 10 ppm in blood agar) | Number dead flies at 24 hours ([1]; Rate 10 ppm in blood agar) | Number dead flies at 2 hours ([1]; Rate 25 ppm in blood agar) | Number dead flies at 4 hours ([1]; Rate 25 ppm in blood agar) | Number dead flies at 24 hours ([1]; Rate 25 ppm in blood agar) | Number dead flies at 2 hours ([1]; Rate 50 ppm in blood agar) | Number dead flies at 4 hours ([1]; Rate 50 ppm in blood agar) | Number dead flies at 24 hours ([1]; Rate 50 ppm in blood agar) | Number dead flies at 2 hours ([1]; Rate 100 ppm in blood agar) | Number dead flies at 4 hours ([1]; Rate 100 ppm in blood agar) | Number dead flies at 24 hours ([1]; Rate 100 ppm in blood agar) | mortality at 0.5 ppm [2] [%]
CCOP(=S)(OCC)Oc1nc(Cl)c(Cl)cc1Cl [Chloropyriphos] | 0 | 1 | 4 | 1 | 4 | 4 | 3 | 4 | 4 | 4 | 4 | 4 | 4 | 4 | 4 | –
N#Cc1nn(-c2c(Cl)cc(C(F)(F)F)cc2Cl)c(N)c1[S+]([O-])C(F)(F)F (stereo not drawn) [Fipronil, (.+−.)-5-amino-1-(2,6-dichloro-α,α,α-triflu-oro-p-tolyl)-4-trifluoromethyl-sulphinylpyrazol-3-carbonitrile, reference compound] | – | – | – | – | – | – | – | – | – | – | – | – | – | – | – | 90 to 100
CNC(=O)c1cc(C#N)cc(C)c1NC(=O)c1cc(Br)nn1-c1ncccc1Cl [Test compound, 3-bromo-1-(3-chloro-2-pyridinyl)-N-[4-cyano-2-methyl-6-[(methylamino)-carbonyl]phenyl]-1H-pyrazole-5-carboxamide] | 0 | 0 | 0 | 0 | 0 | 1 | 0 | 0 | 2 | 0 | 0 | 3 | 0 | 0 | 3 | 90 to 100
